# Measured values: patent US12414911B2, “Topical compositions and methods of use” (priority 2012, dated 2025)
# Key:
# [1] = system: C. Albicans; experiment: Agar-solid Diffusion Method, inhibition zone; type: cell-based; settings: Candida albicans
# [2] = system: P. Acnes; experiment: Agar-solid Diffusion Method, inhibition zone; type: cell-based; settings: Cutibacterium acnes
# [3] = system: T. Rubrum; experiment: Agar-solid Diffusion Method, inhibition zone; type: cell-based; settings: Trichophyton rubrum
# [4] = system: Staph Aureus; experiment: Agar-solid Diffusion Method, inhibition zone; type: cell-based; settings: Staphylococcus aureus
# [5] = system: E. Coli; experiment: Agar-solid Diffusion Method, inhibition zone; type: cell-based; settings: Escherichia coli
# [6] = system: LTB4 release from macrophages; experiment: Inhibition of LTB4 release from stimulated macrophage cell line (radioimmunoassay); type: cell-based; settings: NDGA 25 uM, positive control
# Procedure: MFSO and the MFB skin extract have Anti-inflammatory Activity.
# MFSO and the MFB skin extract were dissolved in DMSO and added to cell culture medium at a stock concentration for use in these in vitro experiments. The ability of MFSO to function as an inhibitor of LTB4 release was evaluated using a macrophage cell line followed by the addition of calcium iontophore for stimulation of LTB4 and the use of a radioimmunoassay (Amersham) for LTB4 detection as previously described (Garrido G, González D, Lemus Y, Garcia D, Lodeiro L, Quintero G, Delporte C, Núñez-Sellés A J, Delgado R. In vivo and in vitro anti-inflammatory activity of Mangifera indica L. extract (VIMANG). Pharmacol Res. 2004 August; 50 (2):143-9). NDGA (25 uM) is a known positive control that inhibits LTB4 release and the vehicle control consisted of DMSO in culture medium with no MFSO.
# [7] = UVB SPF activity of formulations; type: in vivo, human; settings: Octinoxate 3% alone
# Procedure: Formulations containing MFSO and octyl methoxycinnamate (Octinoxate), alone and in combination, were prepared without changing the vehicle base and tested for UVB SPF activity (2 subjects).
# To evaluate for SPF boosting effects of MFSO, a concentration of Octinoxate was selected that gave SPF values that would allow for its efficient absorption and avoid the saturation effect that occurs when higher concentrations of sunscreens are used.
# [8] = system: Normal human spermatozoa; experiment: Spermicidal activity (Sander-Cramer assay); type: cell-based; parameters: key: +: Mobile; −: Immobile; ±: 90% lost mobility; settings: 1% concentration
# Text: Normal human spermatozoa were used to assess the spermicidal activity (Sander-Cramer assay) of MFSO as described (Benhong Z., Zhenpeng Q, Gang L, Chun L, Zhang J. Spermicidal and antigonococcal effects of tannins from pomegranate rind. Journal of Medicinal Plants Research 2012 February; 6 (7); 1334-1339). Nonoxynol-9 was used as a positive reference standard and semen added to physiological saline was used as the negative control. Semen samples were donated by 3 healthy fertile men. The minimum MFSO concentration that caused 100% immobilization of sperm within 20 seconds was considered to be the minimal effective concentration (MEC).
compound,measurement,setting,value
O=C(N[C@H](CO)[C@H](O)c1ccc([N+](=O)[O-])cc1)C(Cl)Cl [Chloramphenicol],zone of inhibition at 30 µM,[1]; 30 uM,0 mm
same,zone of inhibition at 30 µM,[2]; 30 uM,25 mm
same,zone of inhibition at 30 µM,[3]; 30 uM,0 mm
same,zone of inhibition at 30 µM,[4]; 30 uM,25 mm
same,zone of inhibition at 30 µM,[5]; 30 uM,0 mm
O=C(O)c1cn(C2CC2)c2cc(N3CCNCC3)c(F)cc2c1=O [Ciprofloxacin],zone of inhibition at 10 µM,[1]; 10 uM,0 mm
same,zone of inhibition at 10 µM,[2]; 10 uM,22 mm
same,zone of inhibition at 10 µM,[3]; 10 uM,0 mm
same,zone of inhibition at 10 µM,[4]; 10 uM,25 mm
same,zone of inhibition at 10 µM,[5]; 10 uM,25 mm
CC(=O)N1CCN(c2ccc(OCC3COC(Cn4ccnc4)(c4ccc(Cl)cc4Cl)O3)cc2)CC1 (stereo not shown) [Ketoconazole],zone of inhibition at 1000 µM,[1]; 1 mM,25 mm
same,zone of inhibition at 1000 µM,[2]; 1 mM,0 mm
same,zone of inhibition at 1000 µM,[3]; 1 mM,25 mm
same,zone of inhibition at 1000 µM,[4]; 1 mM,0 mm
same,zone of inhibition at 1000 µM,[5]; read-out: Inhibition Zone,0 mm
CC(Cc1ccc(O)c(O)c1)C(C)Cc1ccc(O)c(O)c1 (stereo not shown) [NDGA],inhibition of LTB4 release,[6],98%
"CCCCC(CC)COC(=O)C=Cc1ccc(OC)cc1 (stereo not shown) [Octinoxate, octyl methoxycinnamate]",SPF,[7],3
Nonoxynol-9,Sperm Motility,[8]; action time 20 seconds,−
same,Sperm Motility,[8]; action time 60 seconds,−
